Laboratory results: ChEMBL document CHEMBL1201862, “PubChem BioAssay data set” (2004)
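Interpolation was linear, between the two tested concentrations surrounding the appropriate level; five concentrations were tested over 48 hours in 96-well plates. GI50 marks 50% less growth.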 Active and inactive are the calls of the source. No stated cut-off is given here; in the data, active = GI50 up to about 1.1 µM and inactive = higher.

Columns and labels:
Assay in all cases: inhibition of tumour cell growth, NCI panel, 48 h
T47D = test system: T47D
HL-60 = test system: HL-60
NCI-H23 = test system: NCI-H23
NCI-H226 = test system: NCI-H226
BT-549 = test system: BT-549
SF-295 = test system: SF-295
SF-268 = test system: SF-268
HCT-116 = test system: HCT-116
RPMI-8226 = test system: RPMI-8226
OVCAR-8 = test system: OVCAR-8
U-251 = test system: U-251
Hs-578T = test system: Hs-578T
MCF7 = test system: MCF7
HCC 2998 = test system: HCC 2998
A549 = test system: A549
CCRF-CEM = test system: CCRF-CEM
PC-3 = test system: PC-3
SN12C = test system: SN12C
HOP-62 = test system: HOP-62
CAKI-1 = test system: CAKI-1
DU-145 = test system: DU-145
SK-OV-3 = test system: SK-OV-3
MDA-N = test system: MDA-N
OVCAR-3 = test system: OVCAR-3
RXF 393 = test system: RXF 393
A498 = test system: A498
KM12 = test system: KM12
SNB-75 = test system: SNB-75
LOX IMVI = test system: LOX IMVI
NCI/ADR-RES = test system: NCI/ADR-RES
OVCAR-5 = test system: OVCAR-5
K562 = test system: K562
SK-MEL-5 = test system: SK-MEL-5
ACHN = test system: ACHN
786-0 = test system: 786-0
IGROV-1 = test system: IGROV-1
MOLT-4 = test system: MOLT-4
EKVX = test system: EKVX
Malme-3M = test system: Malme-3M
SR = test system: SR
NCI-H460 = test system: NCI-H460
HT-29 = test system: HT-29
MDA-MB-435 = test system: MDA-MB-435
SK-MEL-2 = test system: SK-MEL-2
SNB-19 = test system: SNB-19
SK-MEL-28 = test system: SK-MEL-28
OVCAR-4 = test system: OVCAR-4
NCI-H522 = test system: NCI-H522
M14 = test system: M14
UO-31 = test system: UO-31
SW-620 = test system: SW-620
COLO 205 = test system: COLO 205
HCT-15 = test system: HCT-15
UACC-62 = test system: UACC-62
MDA-MB-231 = test system: MDA-MB-231

**Q.** Which GI50 (T47D) does the source give for `COc1cc(OC)nc(-n2c(N)c(C(=O)O)c3ccc([N+](=O)[O-])cc3c2=O)n1` here?
**A.** > 100 µM (inactive)

**Q.** What about the GI50 (HL-60) of the same molecule?
**A.** 60.5 µM (inactive)

**Q.** And the GI50 (NCI-H23)?
**A.** > 100 µM (inactive)

**Q.** What about the GI50 (NCI-H226) of the same molecule?
**A.** > 100 µM (inactive)

**Q.** And the GI50 (BT-549)?
**A.** > 100 µM (inactive)

**Q.** What about the GI50 (SF-295) of the same molecule?
**A.** > 100 µM (inactive)

**Q.** And the GI50 (SF-268)?
**A.** > 100 µM (inactive)

**Q.** And the GI50 (HCT-116)?
**A.** > 100 µM (inactive)

**Q.** What about the GI50 (RPMI-8226) of the same molecule?
**A.** > 100 µM (inactive)

**Q.** And the GI50 (OVCAR-8)?
**A.** > 100 µM (inactive)

**Q.** And the GI50 (U-251)?
**A.** > 100 µM (inactive)

**Q.** What about the GI50 (Hs-578T) of the same molecule?
**A.** > 100 µM (inactive)

**Q.** And the GI50 (MCF7)?
**A.** > 100 µM (inactive)

**Q.** And the GI50 (HCC 2998)?
**A.** > 100 µM (inactive)

**Q.** And the GI50 (A549)?
**A.** > 100 µM (inactive)

**Q.** What about the GI50 (CCRF-CEM) of the same molecule?
**A.** 63.1 µM (inactive)

**Q.** What about the GI50 (PC-3) of the same molecule?
**A.** > 100 µM (inactive)

**Q.** What about the GI50 (SN12C) of the same molecule?
**A.** > 100 µM (inactive)

**Q.** What about the GI50 (HOP-62) of the same molecule?
**A.** > 100 µM (inactive)

**Q.** And the GI50 (CAKI-1)?
**A.** > 100 µM (inactive)

**Q.** And the GI50 (DU-145)?
**A.** > 100 µM (inactive)

**Q.** And the GI50 (SK-OV-3)?
**A.** > 100 µM (inactive)

**Q.** And the GI50 (MDA-N)?
**A.** > 100 µM (inactive)

**Q.** What about the GI50 (OVCAR-3) of the same molecule?
**A.** > 100 µM (inactive)

**Q.** And the GI50 (RXF 393)?
**A.** > 100 µM (inactive)

**Q.** And the GI50 (A498)?
**A.** > 100 µM (inactive)

**Q.** What about the GI50 (KM12) of the same molecule?
**A.** > 100 µM (inactive)

**Q.** What about the GI50 (SNB-75) of the same molecule?
**A.** > 100 µM (inactive)

**Q.** What about the GI50 (LOX IMVI) of the same molecule?
**A.** > 100 µM (inactive)

**Q.** And the GI50 (NCI/ADR-RES)?
**A.** > 100 µM (inactive)

**Q.** What about the GI50 (OVCAR-5) of the same molecule?
**A.** > 100 µM (inactive)

**Q.** What about the GI50 (K562) of the same molecule?
**A.** > 100 µM (inactive)

**Q.** And the GI50 (SK-MEL-5)?
**A.** > 100 µM (inactive)

**Q.** And the GI50 (ACHN)?
**A.** > 100 µM (inactive)

**Q.** What about the GI50 (786-0) of the same molecule?
**A.** > 100 µM (inactive)

**Q.** What about the GI50 (IGROV-1) of the same molecule?
**A.** 67.8 µM (inactive)

**Q.** And the GI50 (MOLT-4)?
**A.** > 100 µM (inactive)

**Q.** What about the GI50 (EKVX) of the same molecule?
**A.** > 100 µM (inactive)

**Q.** What about the GI50 (Malme-3M) of the same molecule?
**A.** > 100 µM (inactive)

**Q.** And the GI50 (SR)?
**A.** > 100 µM (inactive)

**Q.** And the GI50 (NCI-H460)?
**A.** > 100 µM (inactive)

**Q.** What about the GI50 (HT-29) of the same molecule?
**A.** > 100 µM (inactive)

**Q.** And the GI50 (MDA-MB-435)?
**A.** > 100 µM (inactive)

**Q.** What about the GI50 (SK-MEL-2) of the same molecule?
**A.** > 100 µM (inactive)

**Q.** What about the GI50 (SNB-19) of the same molecule?
**A.** > 100 µM (inactive)

**Q.** And the GI50 (SK-MEL-28)?
**A.** 97.7 µM (inactive)

**Q.** And the GI50 (OVCAR-4)?
**A.** > 100 µM (inactive)

**Q.** And the GI50 (NCI-H522)?
**A.** > 100 µM (inactive)

**Q.** What about the GI50 (M14) of the same molecule?
**A.** > 100 µM (inactive)

**Q.** What about the GI50 (UO-31) of the same molecule?
**A.** 71.1 µM (inactive)

**Q.** And the GI50 (SW-620)?
**A.** 88.1 µM (inactive)

**Q.** What about the GI50 (COLO 205) of the same molecule?
**A.** > 100 µM (inactive)

**Q.** And the GI50 (HCT-15)?
**A.** > 100 µM

**Q.** What about the GI50 (UACC-62) of the same molecule?
**A.** > 100 µM (inactive)

**Q.** What about the GI50 (MDA-MB-231) of the same molecule?
**A.** > 100 µM (inactive)
